Measurements: ChEMBL document CHEMBL1201862, “PubChem BioAssay data set” (2004)
Calls of active or inactive are those of the source.

Tests used:
[1] = target: T1, Calpain-2 catalytic subunit (Sus scrofa, UniProt P43367); assay: m-calpain protease blockers, concentration series – biochemical, fluorogenic peptide substrate, dose response (AID 1420); type: functional
T1 sequence (P43367 whole entry): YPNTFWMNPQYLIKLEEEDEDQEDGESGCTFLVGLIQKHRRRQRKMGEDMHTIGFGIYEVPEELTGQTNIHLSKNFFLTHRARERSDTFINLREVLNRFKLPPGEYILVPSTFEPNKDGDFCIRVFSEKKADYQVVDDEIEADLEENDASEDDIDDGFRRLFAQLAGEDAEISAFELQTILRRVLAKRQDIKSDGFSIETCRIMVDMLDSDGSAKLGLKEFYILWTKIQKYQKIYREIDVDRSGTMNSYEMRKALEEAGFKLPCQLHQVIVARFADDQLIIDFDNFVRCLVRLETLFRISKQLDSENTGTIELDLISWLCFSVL

Large T antigen = Large T antigen (Simian virus 40, UniProt P03070); type: functional, Betapolyomavirus macacae;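 further: Confirmatory-stage PubChem screen for compounds that inhibit SV40 T antigen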
Sequence of Large T antigen (P03070 whole entry): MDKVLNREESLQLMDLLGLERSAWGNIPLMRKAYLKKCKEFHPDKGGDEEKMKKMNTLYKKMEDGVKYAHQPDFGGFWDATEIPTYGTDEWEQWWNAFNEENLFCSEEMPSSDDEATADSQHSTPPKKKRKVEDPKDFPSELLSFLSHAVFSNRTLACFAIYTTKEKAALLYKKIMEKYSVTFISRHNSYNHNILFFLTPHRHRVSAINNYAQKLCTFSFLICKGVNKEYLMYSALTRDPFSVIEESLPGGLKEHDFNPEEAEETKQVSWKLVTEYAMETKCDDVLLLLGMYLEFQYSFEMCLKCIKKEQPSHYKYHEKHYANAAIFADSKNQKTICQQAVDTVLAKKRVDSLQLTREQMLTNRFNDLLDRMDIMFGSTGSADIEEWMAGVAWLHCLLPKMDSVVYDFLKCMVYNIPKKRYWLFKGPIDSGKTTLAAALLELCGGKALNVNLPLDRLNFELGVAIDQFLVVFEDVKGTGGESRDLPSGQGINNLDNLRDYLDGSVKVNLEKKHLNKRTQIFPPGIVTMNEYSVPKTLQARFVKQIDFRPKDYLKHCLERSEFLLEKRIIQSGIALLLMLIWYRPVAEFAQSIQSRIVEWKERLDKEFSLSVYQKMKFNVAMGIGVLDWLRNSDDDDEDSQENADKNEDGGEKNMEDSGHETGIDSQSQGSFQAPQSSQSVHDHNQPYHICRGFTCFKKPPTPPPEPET

[2] = target: DNA dC->dU-editing enzyme APOBEC-3G (Homo sapiens, UniProt Q9HC16); assay: Dose Response confirmation of small molecule APOBEC3G DNA Deaminase Inhibitors via a fluorescence-based single-stranded DNA deaminase assay. [Related pubchem assays (depositor defined):AID493012, AID493028]; type: functional
Sequence of DNA dC->dU-editing enzyme APOBEC-3G (Q9HC16 whole entry): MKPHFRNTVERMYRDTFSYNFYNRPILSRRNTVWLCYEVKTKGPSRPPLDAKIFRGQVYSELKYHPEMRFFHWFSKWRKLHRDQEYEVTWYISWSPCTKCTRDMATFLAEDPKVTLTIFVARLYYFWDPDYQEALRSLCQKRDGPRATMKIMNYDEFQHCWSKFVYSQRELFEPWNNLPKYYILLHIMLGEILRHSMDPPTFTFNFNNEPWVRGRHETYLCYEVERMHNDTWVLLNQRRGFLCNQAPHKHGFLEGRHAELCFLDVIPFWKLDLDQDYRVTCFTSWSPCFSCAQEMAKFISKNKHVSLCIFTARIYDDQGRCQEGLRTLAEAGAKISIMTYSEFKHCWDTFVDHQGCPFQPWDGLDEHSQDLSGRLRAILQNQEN

Aminopeptidase N = target: T2, Aminopeptidase N (Plasmodium falciparum FcB1/Columbia, UniProt O96935); assay: malaria alanyl aminopeptidase activity blockers – biochemical, fluorogenic H-Leu-NHMec substrate, 1536-well (AID 1445); design: species or system Plasmodium falciparum 3D7, 3D7
T2 sequence (O96935 whole entry): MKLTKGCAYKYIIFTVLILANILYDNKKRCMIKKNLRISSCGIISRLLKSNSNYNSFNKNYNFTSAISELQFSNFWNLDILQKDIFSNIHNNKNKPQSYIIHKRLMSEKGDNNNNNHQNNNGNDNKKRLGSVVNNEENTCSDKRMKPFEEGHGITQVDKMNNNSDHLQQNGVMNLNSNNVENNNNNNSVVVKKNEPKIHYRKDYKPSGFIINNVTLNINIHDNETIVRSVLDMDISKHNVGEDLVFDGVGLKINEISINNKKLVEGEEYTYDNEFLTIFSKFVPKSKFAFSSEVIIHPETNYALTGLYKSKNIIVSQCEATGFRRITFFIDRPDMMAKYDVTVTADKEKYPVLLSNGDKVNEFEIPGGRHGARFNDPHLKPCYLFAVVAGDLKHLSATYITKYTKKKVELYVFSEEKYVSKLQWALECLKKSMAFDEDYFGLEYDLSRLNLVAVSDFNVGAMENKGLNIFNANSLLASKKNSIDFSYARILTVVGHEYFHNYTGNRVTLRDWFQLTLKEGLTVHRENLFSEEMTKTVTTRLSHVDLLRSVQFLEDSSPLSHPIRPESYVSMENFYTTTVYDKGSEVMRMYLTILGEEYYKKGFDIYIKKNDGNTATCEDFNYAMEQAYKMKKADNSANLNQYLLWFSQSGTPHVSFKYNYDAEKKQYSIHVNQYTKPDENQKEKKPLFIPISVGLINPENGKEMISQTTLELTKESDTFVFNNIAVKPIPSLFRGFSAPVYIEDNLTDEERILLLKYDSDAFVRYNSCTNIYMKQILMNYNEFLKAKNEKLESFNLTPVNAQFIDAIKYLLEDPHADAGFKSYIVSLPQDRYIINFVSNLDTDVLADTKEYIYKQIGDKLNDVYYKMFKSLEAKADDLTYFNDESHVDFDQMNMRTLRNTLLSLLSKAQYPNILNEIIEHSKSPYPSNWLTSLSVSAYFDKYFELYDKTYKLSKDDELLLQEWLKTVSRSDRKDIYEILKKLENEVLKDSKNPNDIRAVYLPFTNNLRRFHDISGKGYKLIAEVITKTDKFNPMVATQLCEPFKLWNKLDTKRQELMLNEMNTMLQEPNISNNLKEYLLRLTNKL

Troponin, cardiac muscle = Troponin, cardiac muscle (Homo sapiens, UniProt P19429+P45379+P63316); assay: Fluorescence-based biochemical high throughput dose response assay for activators of the calcium sensitivity of cardiac Regulated Thin Filaments (RTF). [Related pubchem assays (depositor defined):AID493008, AID493018, AID504382, AID504383]; type: protein-complex assay
Leucine aminopeptidase = target: T3, Leucine aminopeptidase (Plasmodium falciparum 3D7, UniProt Q8IL11); assay: P. falciparum M17LAP inhibitors, primary screen, biochemical, fluorogenic H-Leu-NHMec substrate, 1536-well (AID 1619); type: functional
T3 sequence (Q8IL11 whole entry): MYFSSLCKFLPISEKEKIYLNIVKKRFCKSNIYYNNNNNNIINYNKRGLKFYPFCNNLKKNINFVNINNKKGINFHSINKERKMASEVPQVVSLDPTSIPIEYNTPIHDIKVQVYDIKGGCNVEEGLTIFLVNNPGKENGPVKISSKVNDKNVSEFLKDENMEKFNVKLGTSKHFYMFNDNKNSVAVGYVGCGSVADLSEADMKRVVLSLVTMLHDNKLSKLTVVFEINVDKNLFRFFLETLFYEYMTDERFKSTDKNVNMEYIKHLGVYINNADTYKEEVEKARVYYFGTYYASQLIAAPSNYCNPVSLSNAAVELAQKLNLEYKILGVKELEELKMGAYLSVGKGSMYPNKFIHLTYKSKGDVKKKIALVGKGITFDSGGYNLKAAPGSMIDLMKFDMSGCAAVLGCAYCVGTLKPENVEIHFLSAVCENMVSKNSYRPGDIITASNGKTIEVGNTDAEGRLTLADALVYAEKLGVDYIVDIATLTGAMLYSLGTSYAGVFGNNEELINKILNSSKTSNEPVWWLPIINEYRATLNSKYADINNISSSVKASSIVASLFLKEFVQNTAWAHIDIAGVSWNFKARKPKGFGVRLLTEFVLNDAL

[3] = target: Eukaryotic translation initiation factor 4E (Mus musculus, UniProt P63073); assay: blockers of eIF4G binding by eIF4E – biochemical, TR-FRET, dose response (AID 855); type: functional;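 further: potency for disrupting eIF4E binding to eIF4GI seen as loss of FRET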
Sequence of Eukaryotic translation initiation factor 4E (P63073 whole entry): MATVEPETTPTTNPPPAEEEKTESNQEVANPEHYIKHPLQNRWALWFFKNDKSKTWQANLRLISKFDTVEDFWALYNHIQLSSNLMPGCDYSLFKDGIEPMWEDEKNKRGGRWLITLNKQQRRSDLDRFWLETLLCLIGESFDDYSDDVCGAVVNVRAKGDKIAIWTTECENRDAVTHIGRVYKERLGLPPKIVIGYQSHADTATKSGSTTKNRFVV

Protein skinhead-1 = target: T4, Protein skinhead-1 (Caenorhabditis elegans, UniProt P34707); type: functional
T4 sequence (P34707 whole entry): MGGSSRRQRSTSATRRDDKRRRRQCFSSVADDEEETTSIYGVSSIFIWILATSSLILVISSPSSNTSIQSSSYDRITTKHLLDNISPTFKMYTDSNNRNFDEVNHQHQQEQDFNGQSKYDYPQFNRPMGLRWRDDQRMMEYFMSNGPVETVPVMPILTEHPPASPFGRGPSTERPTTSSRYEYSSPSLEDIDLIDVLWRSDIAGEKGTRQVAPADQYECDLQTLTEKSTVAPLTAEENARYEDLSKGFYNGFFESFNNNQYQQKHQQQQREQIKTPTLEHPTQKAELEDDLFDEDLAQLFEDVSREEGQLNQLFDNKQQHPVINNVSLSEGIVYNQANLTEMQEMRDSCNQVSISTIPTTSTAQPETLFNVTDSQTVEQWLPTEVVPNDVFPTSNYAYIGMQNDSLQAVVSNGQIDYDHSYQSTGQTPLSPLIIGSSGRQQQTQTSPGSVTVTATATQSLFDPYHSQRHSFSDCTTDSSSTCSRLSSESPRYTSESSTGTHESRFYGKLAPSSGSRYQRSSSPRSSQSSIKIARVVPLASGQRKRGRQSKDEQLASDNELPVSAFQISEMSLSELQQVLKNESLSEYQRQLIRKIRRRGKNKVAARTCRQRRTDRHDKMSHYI

[4] = target: T5, DNA repair protein RAD52 homolog (Homo sapiens, UniProt P43351); type: functional, biochemical
T5 sequence (P43351 whole entry): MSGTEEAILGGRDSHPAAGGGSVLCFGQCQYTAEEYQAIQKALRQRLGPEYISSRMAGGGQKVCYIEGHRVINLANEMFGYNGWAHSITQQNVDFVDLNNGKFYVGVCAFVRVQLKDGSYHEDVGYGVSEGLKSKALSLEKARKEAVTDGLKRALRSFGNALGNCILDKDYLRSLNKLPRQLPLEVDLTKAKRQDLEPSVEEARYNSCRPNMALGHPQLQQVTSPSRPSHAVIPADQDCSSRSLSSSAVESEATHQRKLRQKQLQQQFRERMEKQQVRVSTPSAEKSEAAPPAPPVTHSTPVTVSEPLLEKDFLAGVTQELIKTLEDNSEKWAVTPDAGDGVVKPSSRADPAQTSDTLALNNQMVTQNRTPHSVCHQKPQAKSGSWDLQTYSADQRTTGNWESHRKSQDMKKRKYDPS

[5] = target: Glyceraldehyde-3-phosphate dehydrogenase (Homo sapiens, UniProt P04406)
Sequence of Glyceraldehyde-3-phosphate dehydrogenase (P04406 whole entry): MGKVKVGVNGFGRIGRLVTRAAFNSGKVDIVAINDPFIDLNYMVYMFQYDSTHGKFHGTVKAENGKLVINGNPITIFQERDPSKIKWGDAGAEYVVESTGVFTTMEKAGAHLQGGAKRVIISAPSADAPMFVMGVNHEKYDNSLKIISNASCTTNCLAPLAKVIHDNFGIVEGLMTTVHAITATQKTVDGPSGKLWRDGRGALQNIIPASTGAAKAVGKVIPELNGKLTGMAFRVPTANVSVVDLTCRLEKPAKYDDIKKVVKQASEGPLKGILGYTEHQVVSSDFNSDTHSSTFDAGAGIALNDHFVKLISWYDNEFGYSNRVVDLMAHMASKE

Cytochrome P450 2C9 = Cytochrome P450 2C9 (Homo sapiens, UniProt P11712)
Sequence of Cytochrome P450 2C9 (P11712 whole entry): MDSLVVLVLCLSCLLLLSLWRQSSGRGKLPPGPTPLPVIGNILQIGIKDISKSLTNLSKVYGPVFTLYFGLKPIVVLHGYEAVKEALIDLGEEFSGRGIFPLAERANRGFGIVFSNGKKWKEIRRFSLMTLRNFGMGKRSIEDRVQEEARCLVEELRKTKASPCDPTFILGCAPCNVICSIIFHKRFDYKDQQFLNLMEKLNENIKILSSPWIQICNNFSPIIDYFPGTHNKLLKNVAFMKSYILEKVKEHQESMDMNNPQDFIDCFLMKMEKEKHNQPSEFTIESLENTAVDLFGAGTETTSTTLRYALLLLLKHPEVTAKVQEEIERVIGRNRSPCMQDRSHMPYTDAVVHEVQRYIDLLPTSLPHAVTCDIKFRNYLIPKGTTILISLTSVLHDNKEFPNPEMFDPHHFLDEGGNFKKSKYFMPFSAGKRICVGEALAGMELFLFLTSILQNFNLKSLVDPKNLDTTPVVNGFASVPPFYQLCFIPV

Cytochrome P450 1A2 = target: T6, Cytochrome P450 1A2 (Homo sapiens, UniProt P05177);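 further: PubChem cytochrome P450 panel assay, CYP1A2 panel member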
T6 sequence (P05177 whole entry): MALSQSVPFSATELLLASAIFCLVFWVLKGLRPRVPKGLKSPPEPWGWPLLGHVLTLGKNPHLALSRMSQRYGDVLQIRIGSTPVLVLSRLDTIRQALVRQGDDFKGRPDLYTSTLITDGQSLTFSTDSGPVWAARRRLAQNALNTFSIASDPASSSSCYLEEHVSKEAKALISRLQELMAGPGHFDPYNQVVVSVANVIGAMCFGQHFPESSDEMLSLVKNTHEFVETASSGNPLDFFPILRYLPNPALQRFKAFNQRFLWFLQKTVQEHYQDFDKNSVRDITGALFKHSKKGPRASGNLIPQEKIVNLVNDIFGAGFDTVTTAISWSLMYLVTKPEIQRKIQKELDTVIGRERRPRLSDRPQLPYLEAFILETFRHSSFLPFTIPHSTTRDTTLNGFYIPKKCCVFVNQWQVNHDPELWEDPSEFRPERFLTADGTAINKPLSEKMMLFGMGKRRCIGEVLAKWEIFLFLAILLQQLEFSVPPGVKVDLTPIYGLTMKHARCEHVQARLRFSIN

[6] = target: T7, Microphthalmia-associated transcription factor (Homo sapiens, UniProt O75030); assay: reducers of TRPM1 reporter luminescence, concentration series – cell-based, SK-MEL-5, cherry-picked, set 3, MITF inhibitor project, dose response (AID 493073); type: functional;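 further: SK-MEL-5 melanoma cells with luciferase driven by the MITF target TRPM1 promoter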
T7 sequence (O75030 whole entry): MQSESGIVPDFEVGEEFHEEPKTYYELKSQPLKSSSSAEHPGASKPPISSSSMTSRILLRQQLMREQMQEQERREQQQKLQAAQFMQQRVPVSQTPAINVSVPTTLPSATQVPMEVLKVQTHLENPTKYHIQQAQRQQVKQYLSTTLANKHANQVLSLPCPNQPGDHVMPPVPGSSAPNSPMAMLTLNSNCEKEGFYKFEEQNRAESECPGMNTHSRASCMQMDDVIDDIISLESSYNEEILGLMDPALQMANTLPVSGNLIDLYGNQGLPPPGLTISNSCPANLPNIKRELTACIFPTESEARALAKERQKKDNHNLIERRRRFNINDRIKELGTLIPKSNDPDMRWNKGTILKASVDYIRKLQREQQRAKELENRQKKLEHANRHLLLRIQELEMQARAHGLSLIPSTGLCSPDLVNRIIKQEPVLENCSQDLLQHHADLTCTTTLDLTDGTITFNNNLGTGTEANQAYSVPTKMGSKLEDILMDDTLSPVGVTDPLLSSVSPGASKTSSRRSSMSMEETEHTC

O=C(/C=C/c1ccc([N+](=O)[O-])cc1)NCCSc1ccccc1
IC50 [1]: 15.9 µM (not active)

Cc1ccc(C2(C)NC(=O)N(CC(=O)Nc3nc(-c4ccccn4)cs3)C2=O)cc1 (stereo not given)
IC50 (Large T antigen): > 100 µM (active) | IC50 [2]: 25.6 µM (active)

C=CCn1c(=N)c(C(=O)NCCCOC)cc2c(=O)n3cccc(C)c3nc21
IC50 (Aminopeptidase N): 47.6 µM (active)

S=C(Nc1cc(Cl)ccc1Oc1ccccc1)N1CCN(c2ccccn2)CC1
EC50 (Troponin, cardiac muscle): > 71.4 µM (inactive)

Cc1ccc(C(=O)Nc2nc(=O)n(C(=O)c3ccccc3Cl)s2)cc1
IC50 (Aminopeptidase N): 38.8 µM (active) | IC50 (Leucine aminopeptidase): 13.8 µM (active)

CCOC(=O)c1ccc2c(c1)nc(SCC(=O)c1cc3ccccc3o1)n2CC
IC50 [3]: > 64 µM (inactive) | IC50 (Protein skinhead-1): > 100 µM (inactive)

O=C1NN=C(CSc2nnc(S)s2)CS1
IC50 [2]: 9.78 µM (active)

CCc1nc(N=C(N)N)nc2ccccc12
AC50 [4]: 20.2 µM (active) | IC50 (Aminopeptidase N): 48.5 µM (active)

CCCCOC(=O)c1ccc(S(N)(=O)=O)o1
IC50 [5]: > 100 µM (not active)

Cc1cc(OCc2nnn[nH]2)c2c3c(c(=O)oc2c1)CCCC3
IC50 (Aminopeptidase N): 68.9 µM (active)

COc1ccccc1NC(=O)c1ccc(NC(=O)c2cc3c(s2)CCC3)cc1
IC50 [3]: > 64 µM (inactive)

COc1cccc(Cn2c(=O)c(-c3cccs3)nc3cnc(N4CCN(C)CC4)nc32)c1
AC50 (Cytochrome P450 2C9): inconclusive | AC50 (Cytochrome P450 1A2): 5.01 µM (inconclusive)

COc1ccccc1/C=C/C=C1\Oc2c(ccc(O)c2CN2CCN(CCO)CC2)C1=O
EC50 (Troponin, cardiac muscle): 1.37 µM (active)

CN=C(S)N=Nc1c(O)[nH]c2ccccc12
IC50 (Aminopeptidase N): 47.9 µM (active)

C/C(NCC1CCCO1)=C1/C(=O)NC(=O)N(c2ccccc2)C1=O (stereo not given)
IC50 [3]: > 64 µM (inactive)

CC(NC(=O)C12CC3CC(CC(C3)C1)C2)C(=O)NN=Cc1ccc([N+](=O)[O-])o1 (stereo not given)
AC50 [6]: 7.79 µM (active)

COc1ccc(OC)c(N2C(=O)/C(=C/NCCN3CCNCC3)C(=O)NC2=S)c1
EC50 (Troponin, cardiac muscle): > 71.5 µM (inactive)

Cc1ccc(S(=O)(=O)CC(O)CN2CCCC2=O)cc1 (stereo not given)
AC50 (Cytochrome P450 2C9): inconclusive

O=C(Nc1cccc2ccccc12)c1ccc(Br)o1
IC50 [3]: > 64 µM (inactive)

Sc1nnc(-c2ccccn2)n1/N=C/c1ccccc1
IC50 [2]: 9.26 µM (active)
